The test concerns the target T1, CFTR (Homo sapiens, UniProt P13569, DEL508-508).
T1 construct: endogenous in cells; host or cells: primary human bronchial epithelial cells from CF subjects (F508del/MF-HBE), differentiated at air-liquid interface
The test is described as follows: HBE assay: Ussing chamber assay of CFTR-mediated short-circuit currents. It counts as cell-based. The conditions noted are these: for pEC50: read-out: HBE EC50. The gist of the method:
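CFTR-mediated Isc (μA/cm²) equals the peak response to apical 20 μM forskolin minus the residual after a 20 μM each BPO/GlyH-101/CFTR inhibitor 172 cocktail, recorded in Ussing chambers at Vhold 0 mV, 37 °C, pH 7.4, with 30 μM apical amiloride. Cells were F508del/MF HBE cultures preincubated 18-24 h with corrector (concentration range or 10 μM) plus 1 μM ivacaftor in 20% human serum.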

Where [1] appears, read: Table 10, read-out: HBE Max activity (%).
Where [2] appears, read: Table 10, read-out: HBE activity at 10 (μM) (%).
[3] abbreviates: Table 12, read-out: HBE Max Activity (%).
Where [4] appears, read: Table 12, read-out: HBE Activity at 10 μM (%).
[5] abbreviates: Table 11, read-out: HBE Activity at 10 μM (%).
Where [6] appears, read: Table 13, read-out: HBE Max Activity (%).
Setting [7] is: Table 13, read-out: HBE Activity at 10 μM (%).

pEC50: −log10 of the molar value. Read-outs that look alike come from different tables or passages of the source.

T1 sequence (P13569 with tags, fused parts or gaps DEL508-508): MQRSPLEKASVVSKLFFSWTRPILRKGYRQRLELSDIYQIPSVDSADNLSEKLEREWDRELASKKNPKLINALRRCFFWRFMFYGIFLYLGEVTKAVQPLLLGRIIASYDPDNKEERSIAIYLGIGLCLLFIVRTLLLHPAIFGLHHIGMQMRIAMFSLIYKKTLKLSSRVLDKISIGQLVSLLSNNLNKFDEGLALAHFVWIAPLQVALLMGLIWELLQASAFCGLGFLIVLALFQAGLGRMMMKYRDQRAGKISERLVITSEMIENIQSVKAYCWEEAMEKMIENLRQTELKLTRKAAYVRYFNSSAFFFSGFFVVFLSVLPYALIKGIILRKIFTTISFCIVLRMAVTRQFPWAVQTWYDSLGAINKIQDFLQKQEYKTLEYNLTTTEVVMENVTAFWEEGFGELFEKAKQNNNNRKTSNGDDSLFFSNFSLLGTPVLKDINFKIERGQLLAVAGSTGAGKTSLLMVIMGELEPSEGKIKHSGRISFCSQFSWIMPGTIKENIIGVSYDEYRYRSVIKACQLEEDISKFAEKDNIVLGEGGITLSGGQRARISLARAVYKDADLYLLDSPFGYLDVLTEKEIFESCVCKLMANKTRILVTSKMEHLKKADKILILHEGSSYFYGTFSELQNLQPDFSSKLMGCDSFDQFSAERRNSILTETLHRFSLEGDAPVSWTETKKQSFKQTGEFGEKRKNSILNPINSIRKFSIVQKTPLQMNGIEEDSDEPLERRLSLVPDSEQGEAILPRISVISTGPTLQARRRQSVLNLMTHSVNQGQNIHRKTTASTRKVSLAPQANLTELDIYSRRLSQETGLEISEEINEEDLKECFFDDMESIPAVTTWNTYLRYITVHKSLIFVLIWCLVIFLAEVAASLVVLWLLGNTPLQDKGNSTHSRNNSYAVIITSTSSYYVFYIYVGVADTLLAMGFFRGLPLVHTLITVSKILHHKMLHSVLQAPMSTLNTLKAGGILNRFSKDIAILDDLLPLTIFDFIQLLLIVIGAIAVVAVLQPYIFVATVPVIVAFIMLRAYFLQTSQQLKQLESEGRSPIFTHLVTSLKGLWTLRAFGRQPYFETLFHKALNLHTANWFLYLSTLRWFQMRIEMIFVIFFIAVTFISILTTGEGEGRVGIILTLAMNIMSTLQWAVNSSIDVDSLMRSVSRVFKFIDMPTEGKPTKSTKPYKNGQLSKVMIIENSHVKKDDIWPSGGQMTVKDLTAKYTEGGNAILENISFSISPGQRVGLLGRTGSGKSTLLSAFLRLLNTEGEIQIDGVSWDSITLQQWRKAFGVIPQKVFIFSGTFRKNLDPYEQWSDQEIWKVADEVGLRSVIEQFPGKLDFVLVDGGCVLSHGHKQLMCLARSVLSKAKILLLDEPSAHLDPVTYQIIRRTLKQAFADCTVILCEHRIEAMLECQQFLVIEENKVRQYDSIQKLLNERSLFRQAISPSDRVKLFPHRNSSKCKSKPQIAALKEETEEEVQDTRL

For `Cc1cccc(C)c1-c1cc2nc(n1)NS(=O)(=O)c1cccc(c1)C(=O)N(Cc1ncccc1-c1c(C)n[nH]c1C)[C@H](CC(C)(C)C)CO2` [Compound 301], under “Table 10”, the negative-log EC50 (pEC50) (in general, the EC50 on a negative log10 scale, so that one unit is a factor of ten) is > 6.00. In addition, the Emax under setting [1] is > 60%.

On to `Cc1cccc(C)c1-c1cc2nc(n1)NS(=O)(=O)c1cccc(c1)C(=O)N(Cc1ccccc1-c1c[nH]nc1C1CC1)[C@H](CC(C)(C)C)CO2` [Compound 303], for which the pEC50 (Table 10) was > 6.00. In addition, under setting [1], the Emax is > 60%.

As to `Cc1cccc(C)c1-c1cc2nc(n1)NS(=O)(=O)c1cccc(c1)C(=O)N(Cc1ccccc1-c1c[nH]nc1C(F)(F)F)[C@H](CC(C)(C)C)CO2` [Compound 304], the activation at 10 µM under setting [2] is > 60%.

`Cc1cccc(C)c1-c1cc2nc(n1)NS(=O)(=O)c1cccc(c1)C(=O)N(Cc1ccccc1-c1csc(OC(C)C)n1)[C@H](CC(C)(C)C)CO2` [Compound 305]: under setting [2], the activation at 10 µM was > 60%.

For the molecule `Cc1cccc(C)c1-c1cc2nc(n1)NS(=O)(=O)c1cccc(c1)C(=O)N(Cc1ccccc1-c1c(C)n[nH]c1C)[C@H](CC(C)(C)C)CO2` [Compound 306], the pEC50 (Table 10) was > 6.00. Under setting [1], the Emax was > 60%.

As for `Cc1cccc(C)c1-c1cc2nc(n1)NS(=O)(=O)c1cccc(c1)C(=O)N(Cc1ccccc1-c1c[nH]nc1C)[C@H](CC(C)(C)C)CO2` [Compound 307], the activation at 10 µM under setting [2] was > 60%.

Turning to `Cc1cccc(C)c1-c1cc2nc(n1)NS(=O)(=O)c1cccc(c1)C(=O)N(Cc1cccc(-c3c[nH]nc3C3CC3)c1)[C@H](CC(C)(C)C)CO2` [Compound 308], the pEC50 (Table 10) was > 6.00. Also, the Emax under setting [1] was > 60%.

Turning to `Cc1cccc(C)c1C1CC2NC(N1)NS(=O)(=O)C1CCCC(C1)C(=O)N(Cc1cccc(-c3c[nH]nc3C(C)(C)C)c1)[C@H](CC(C)(C)C)CO2` (some centres unmarked) [Compound 309], the Emax under setting [1] was > 60%.

In the case of `Cc1cccc(C)c1-c1cc2nc(n1)NS(=O)(=O)c1cccc(c1)C(=O)N(Cc1cccc(-c3c[nH]nc3C)c1)[C@H](CC(C)(C)C)CO2` [Compound 312], the activation at 10 µM under setting [2] was > 60%.

For `Cc1cccc(C)c1-c1cc2nc(n1)NS(=O)(=O)c1cccc(c1)C(=O)N(Cc1cccc(-c3c(C)n[nH]c3C)c1)[C@H](CC(C)(C)C)CO2` [Compound 313], the pEC50 (Table 10) was > 6.00. The Emax under setting [1] was > 60%.

As for `Cc1cccc(C)c1-c1cc2nc(n1)NS(=O)(=O)c1cccc(c1)C(=O)N(Cc1nc(N(C)C)cc(N(C)C)n1)[C@H](CC(C)(C)C)CO2` [Compound 322], the pEC50 (Table 12) was > 6.00. In addition, under setting [3], the Emax was > 60%.

Turning to `Cc1cc(N(C)C(C)C)nc(CN2C(=O)c3cccc(c3)S(=O)(=O)Nc3nc(cc(-c4c(C)cccc4C)n3)OC[C@H]2CC(C)(C)C)n1` [Compound 323], the activation at 10 µM under setting [4] is > 600%.

Consider `Cc1cc(N(C)C)nc(CN2C(=O)c3cccc(c3)S(=O)(=O)Nc3nc(cc(-c4c(C)cccc4C)n3)OC[C@H]2CC(C)(C)C)n1` [Compound 324], for which the activation at 10 µM under setting [4] is > 600%.

With `Cc1cccc(C)c1-c1cc2nc(n1)NS(=O)(=O)c1cccc(c1)C(=O)N(Cc1nc(N(C)C)cc(C(F)(F)F)n1)[C@H](CC(C)(C)C)CO2` [Compound 325], the activation at 10 µM under setting [4] was > 600%.

In the case of `Cc1cccc(C)c1-c1cc2nc(n1)NS(=O)(=O)c1cccc(c1)C(=O)N(Cc1nc(N(C)C(C)C)cc(C(F)(F)F)n1)[C@H](CC(C)(C)C)CO2` [Compound 326], under setting [4], the activation at 10 µM was > 600%.

Regarding `Cc1cnc(CN2C(=O)c3cccc(c3)S(=O)(=O)Nc3nc(cc(-c4c(C)cccc4C)n3)OC[C@H]2CC(C)(C)C)nc1N1CCCC1(C)C` [Compound 327], the activation at 10 µM under setting [4] was > 600%.

With `Cc1cnc(CN2C(=O)c3cccc(c3)S(=O)(=O)Nc3nc(cc(-c4c(C)cccc4C)n3)OC[C@H]2CC(C)(C)C)nc1N(C)CC(C)(C)C` [Compound 328], for the setting “Table 12”, the negative logarithm of the EC50 (pEC50) was > 6.00. Moreover, under setting [3], the Emax was > 60%.

For the molecule `Cc1cnc(CN2C(=O)c3cccc(c3)S(=O)(=O)Nc3nc(cc(-c4c(C)cccc4C)n3)OC[C@H]2CC(C)(C)C)nc1N(C)C1CCCC1` [Compound 329], the activation at 10 µM under setting [4] was > 600%.

For `Cc1cnc(CN2C(=O)c3cccc(c3)S(=O)(=O)Nc3nc(cc(-c4c(C)cccc4C)n3)OC[C@H]2CC(C)(C)C)nc1N(C)C(C)C` [Compound 330], the activation at 10 µM under setting [4] was > 600%.

Regarding `Cc1cccc(C)c1-c1cc2nc(n1)NS(=O)(=O)c1cccc(c1)C(=O)N(Cc1ccc(N3CCOCC3)cn1)C(CC(C)(C)C)CO2` (centres unmarked) [Compound 332], the activation at 10 µM under setting [5] is < 30%.

`Cc1cccc(O)c1-c1cc2nc(n1)NS(=O)(=O)c1cccc(c1)C(=O)N(Cc1ccc(N3CCOCC3)cn1)[C@H](CC(C)(C)C)CO2` [Compound 333]: under setting [5], the activation at 10 µM was 30 to 60%.

For the molecule `Cc1cccc(C)c1-c1cc2nc(n1)NS(=O)(=O)c1cccc(c1)C(=O)N(Cc1cccc(OC(C)C)n1)[C@H](CC(C)(C)C)CO2` [Compound 370], the pEC50 (Table 13) is > 6.00. In addition, the Emax under setting [6] is > 60%.

Turning to `Cc1cccc(C)c1-c1cc2nc(n1)NS(=O)(=O)c1cccc(c1)C(=O)N(Cc1nc(N(C)CC(C)(C)C)ccc1F)[C@H](CC(C)(C)C)CO2` [Compound 371], the pEC50 (Table 13) was > 6.00. The Emax under setting [6] was > 60%.

Consider `Cc1cccc(C)c1-c1cc2nc(n1)NS(=O)(=O)c1cccc(c1)C(=O)N(Cc1nc(Br)ccc1F)[C@H](CC(C)(C)C)CO2` [Compound 372], for which the activation at 10 µM under setting [7] was > 600%.

`Cc1cccc(C)c1-c1cc2nc(n1)NS(=O)(=O)c1cccc(c1)C(=O)N(Cc1cccnc1N1CCOCC1)[C@H](CC(C)(C)C)CO2` [Compound 374]: where the note is “Table 10”, the pEC50 is > 6.00. The Emax under setting [1] is > 60%.

Turning to `Cc1cccc(C)c1-c1cc2nc(n1)NS(=O)(=O)c1cccc(c1)C(=O)N(Cc1cc(N3CCOCC3)ccn1)[C@H](CC(C)(C)C)CO2` [Compound 375], the pEC50 (Table 10) was > 6.00. The Emax under setting [1] is > 60%.

For `Cc1cccc(C)c1-c1cc2nc(n1)NS(=O)(=O)c1cccc(c1)C(=O)N(Cc1cnccc1N1CCOCC1)[C@H](CC(C)(C)C)CO2` [Compound 376], where the note is “Table 10”, the pEC50 is > 6.00. In addition, under setting [1], the Emax was > 60%.

As to `Cc1cccc(C)c1-c1cc2nc(n1)NS(=O)(=O)c1cccc(c1)C(=O)N(Cc1ncccc1N1CCCCC1)[C@H](CC(C)(C)C)CO2` [Compound 377], for the setting “Table 10”, the negative logarithm of the EC50 (pEC50) was > 6.00. In addition, the Emax under setting [1] was > 60%.

Consider `COCCNc1cccnc1CN1C(=O)c2cccc(c2)S(=O)(=O)Nc2nc(cc(-c3c(C)cccc3C)n2)OC[C@H]1CC(C)(C)C` [Compound 378], for which the pEC50 (Table 10) is > 6.00. Also, under setting [1], the Emax was > 60%.

`Cc1cccc(C)c1-c1cc2nc(n1)NS(=O)(=O)c1cccc(c1)C(=O)N(Cc1ncccc1N(C)C)[C@H](CC(C)(C)C)CO2` [Compound 379]: for the setting “Table 10”, the negative-log EC50 (pEC50) is > 6.00. Also, the Emax under setting [1] was > 60%.

Regarding `Cc1cccc(C)c1-c1cc2nc(n1)NS(=O)(=O)c1cccc(c1)C(=O)N(Cc1ccccn1)[C@H](CC(C)(C)C)CO2` [Compound 381], the Emax under setting [1] was > 60%.

As for `COc1cccnc1CN1C(=O)c2cccc(c2)S(=O)(=O)Nc2nc(cc(-c3c(C)cccc3C)n2)OC[C@H]1CC(C)(C)C` [Compound 382], the negative logarithm of the EC50 (pEC50) (Table 10) is > 6.00. The Emax under setting [1] is > 60%.

For `Cc1cccc(C)c1-c1cc2nc(n1)NS(=O)(=O)c1cccc(c1)C(=O)N(Cc1cccc(N3CCOCC3)n1)[C@H](CC(C)(C)C)CO2` [Compound 384], the pEC50 (Table 10) was > 6.00. Under setting [1], the Emax was > 60%.

For the molecule `Cc1cccc(C)c1-c1cc2nc(n1)NS(=O)(=O)c1cccc(c1)C(=O)N(Cc1ccc(C(C)(C)C)cc1O)[C@H](CC(C)(C)C)CO2` [Compound 433], the activation at 10 µM under setting [7] is > 600%.

For the molecule `Cc1cccc(C)c1-c1cc2nc(n1)NS(=O)(=O)c1cccc(c1)C(=O)N(Cc1nccc(N(C)C(C3CC3)C3CC3)n1)[C@H](CC(C)(C)C)CO2` [Compound 434], the activation at 10 µM under setting [7] is > 600%.

`Cc1cccc(C)c1-c1cc2nc(n1)NS(=O)(=O)c1cccc(c1)C(=O)N(Cc1nccc(N(C)C3CCC(C)(C)CC3)n1)[C@H](CC(C)(C)C)CO2` [Compound 435]: the negative-log EC50 (pEC50) (Table 13) is > 6.00. For the same molecule, under setting [6], the Emax is > 60%.

In the case of `Cc1cccc(C)c1-c1cc2nc(n1)NS(=O)(=O)c1cccc(c1)C(=O)N(Cc1nccc(N(C)C3CC(C)(C)C3)n1)[C@H](CC(C)(C)C)CO2` [Compound 436], the pEC50 (Table 13) was > 6.00. Moreover, the Emax under setting [6] is > 60%.

In the case of `Cc1cccc(C)c1-c1cc2nc(n1)NS(=O)(=O)c1cccc(c1)C(=O)N(Cc1cncc(N(C)C3CCC34CCC4)n1)[C@H](CC(C)(C)C)CO2` (some centres unmarked) [Compound 437], the negative-log EC50 (pEC50) (Table 12) was > 6.00. Under setting [3], the Emax was > 60%.

In the case of `Cc1cccc(C)c1-c1cc2nc(n1)NS(=O)(=O)c1cccc(c1)C(=O)N(Cc1cncc(N(C)C3CCC34CCC4)n1)[C@H](CC(C)(C)C)CO2` (some centres unmarked) [Compound 438], the pEC50 (Table 12) is > 6.00.

For the molecule `Cc1cccc(C)c1-c1cc2nc(n1)NS(=O)(=O)c1cccc(c1)C(=O)N(Cc1cccc(N(C)C3CC4(CCC4)C3)n1)[C@H](CC(C)(C)C)CO2` [Compound 439], for the setting “Table 12”, the pEC50 is > 6.00. The Emax under setting [3] was > 60%.

As to `Cc1cccc(C)c1-c1cc2nc(n1)NS(=O)(=O)c1cccc(c1)C(=O)N(Cc1cccc(NC34CC(C3)C4)n1)[C@H](CC(C)(C)C)CO2` [Compound 440], for the setting “Table 12”, the pEC50 is > 6.00. The Emax under setting [3] is > 60%.

For the molecule `Cc1cccc(C)c1-c1cc2nc(n1)NS(=O)(=O)c1cccc(c1)C(=O)N(Cc1cncc(N(C)C3CC4(CCC4)C3)n1)[C@H](CC(C)(C)C)CO2` [Compound 441], the pEC50 (Table 12) was > 6.00. Besides, under setting [3], the Emax was > 60%.

Values taken from patent US20240150377A1, “MODULATORS OF CYSTIC FIBROSIS TRANSMEMBRANE CONDUCTANCE REGULATOR” (VERTEX PHARMACEUTICALS INCORPORATED, priority 2020, published 2024).
